Assay results as given in the NIST ThermoML archive (doi:10.1021/je4004405).

Columns and labels:
[1] = 298.15 K, 101.33 kPa, Liquid
[2] = wn = mass fraction of the nth substance listed; settings: 101 kPa, Liquid; for viscosity: Capillary tube (Ostwald / Ubbelohde) method; for mass density: Pycnometric method

CCCCOCCO [2-butoxyethan-1-ol]
[1]
Settings | mass density [kg/m3] | viscosity [mPa·s]
Capillary tube (Ostwald / Ubbelohde) method | – | 2.782
Pycnometric method | 896.16 | –

CCCCOCCO [2-butoxyethan-1-ol] + O
[2]
Settings | mass density, 298.15 K [kg/m3] | mass density, 303.15 K [kg/m3] | mass density, 308.15 K [kg/m3] | mass density, 313.15 K [kg/m3] | viscosity, 298.15 K [mPa·s] | viscosity, 303.15 K [mPa·s] | viscosity, 308.15 K [mPa·s] | viscosity, 313.15 K [mPa·s]
w1 = 0.2 | 986.46 | 982.92 | 980.38 | 977.64 | 1.849 | 1.622 | 1.465 | 1.302
w1 = 0.4 | 967.1 | 964.31 | 961.45 | 958.48 | 2.998 | 2.635 | 2.334 | 2.054
w1 = 0.6 | 948.1 | 944.74 | 941.59 | 937.57 | 3.918 | 3.394 | 2.921 | 2.539
w1 = 1 | 896.16 | 892.74 | 888.88 | 884.29 | 2.782 | 2.499 | 2.206 | 1.946
